Experimental data published in US6787567B2, “Fungicidal active ingredients combinations” (Bayer Aktiengesellschaft, priority 2000, dated 2004).

Tested on: Plasmopara viticola
Assay: Plasmopara test (grapevine)/protective
Format: in vivo, Plasmopara viticola on grapevine
Conditions: protective, evaluation 6 days after inoculation
Experimental: Plasmopara Test (Grapevine)/Protective
Solvent: 49 parts by weight of acetone
Emulsifier: 1 part by weight of alkyl-aryl polyglycol ether
To produce a suitable preparation of active compound, 1 part by weight of active compound or active compound combination is mixed with the stated amounts of solvent and emulsifier, and the concentrate is diluted with water to the desired concentration, or a commercially available formulation of active compound or active compound combination is diluted with water to the desired concentration.
To test for protective activity, young plants are sprayed with the preparation of active compound at the stated application rate. After the spray coating has dried on, the plants are inoculated with an aqueous spore suspension of Plasmopara viticola and then remain in an incubation cabin at approximately 20° C. and 100% relative atmospheric humidity for 1 day. The plants are then placed in a greenhouse at approximately 21° C. and approximately 90% atmospheric humidity for 4 days. The plants are then moistened and then placed in an incubation cabin for 1 day.
Evaluation is carried out 6 days after the inoculation. 0% means an efficacy which corresponds to that of the control, whereas an efficacy of 100% means that no infection is observed.

Row | SMILES | % efficacy (application rate 100 g/ha) | % efficacy (application rate 10 g/ha)
1 | [Cl-].[Cu+2].[Cu+2].[OH-].[OH-].[OH-] [Copper oxychloride (XXXXVIa), copper oxychloride] | 26% | 
2 | CON=C(C(=O)NCCc1ccc(OC)c(OC)c1)c1ccc2c(c1)CCCC2 [Ib] |  | 66%
